Laboratory results reported in ChEMBL document CHEMBL1149915, “Natural products as leads to potential drugs: an old process or the new hope for drug discovery?” (J Med Chem, 2008).

What was measured:
[1] = Inhibition of cyclin dependent kinase
[2] = Inhibition of beta-arylsulfotransferase 4
[3] = Inhibition of inositol 1,4,5-triphosphate 3-kinase
[4] = biological target: Cyclin-dependent kinase 1/cyclin B1 (Homo sapiens, UniProt P06493); experiment: Inhibition of Cdk1/cyclin B
[5] = biological target: Cyclin-dependent kinase 2 (Homo sapiens, UniProt P24941); experiment: Inhibition of Cdk2/cyclin A

Cyclin-dependent kinase 1/cyclin B1, sequence (P06493 whole entry): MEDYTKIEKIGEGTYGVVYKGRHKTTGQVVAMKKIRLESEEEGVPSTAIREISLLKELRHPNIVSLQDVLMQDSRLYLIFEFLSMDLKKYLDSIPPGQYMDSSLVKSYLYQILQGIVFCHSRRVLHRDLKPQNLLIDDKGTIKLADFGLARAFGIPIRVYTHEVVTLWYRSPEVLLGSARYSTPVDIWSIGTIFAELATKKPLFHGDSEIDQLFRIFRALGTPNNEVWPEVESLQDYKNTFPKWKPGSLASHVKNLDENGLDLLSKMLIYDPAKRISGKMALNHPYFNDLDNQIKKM
Cyclin-dependent kinase 1/cyclin B1, sequence (P14635 whole entry, further chain): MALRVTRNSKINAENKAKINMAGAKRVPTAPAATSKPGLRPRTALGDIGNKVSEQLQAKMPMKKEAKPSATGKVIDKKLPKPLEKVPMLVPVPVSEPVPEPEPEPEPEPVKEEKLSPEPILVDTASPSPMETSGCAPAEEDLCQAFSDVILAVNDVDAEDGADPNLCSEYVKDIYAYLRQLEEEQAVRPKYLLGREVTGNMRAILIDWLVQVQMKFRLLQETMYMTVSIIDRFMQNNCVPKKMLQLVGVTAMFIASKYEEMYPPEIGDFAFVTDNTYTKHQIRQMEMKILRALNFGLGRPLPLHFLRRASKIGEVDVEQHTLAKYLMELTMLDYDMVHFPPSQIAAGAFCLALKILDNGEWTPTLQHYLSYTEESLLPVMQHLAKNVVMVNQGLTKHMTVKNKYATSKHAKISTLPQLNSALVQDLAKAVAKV

| IC50 [1] [µM] | Structure (SMILES) | further results |
| --- | --- | --- |
| 0.004 | CC[C@H](CO)Nc1nc(Nc2cccc(Cl)c2)c2ncn(C(C)C)c2n1 | – |
| – | Clc1nc(NCc2cccc3ccccc23)c2nc[nH]c2n1 | Ki [2]: 0.096 µM |
| 0.004 | CC[C@H](CO)Nc1nc(Nc2cc(Cl)cc(C(=O)O)c2)c2ncn(C(C)C)c2n1 | – |
| – | O=[N+]([O-])c1ccc(CNc2nc(NCc3cccc(C(F)(F)F)c3)nc3[nH]cnc23)cc1 | IC50 [3]: 10.2 µM; IC50 [4]: > 100 µM |
| – | OCCn1cnc2c(NCc3ccccc3)nc(NCc3ccc(Br)cc3)nc21 | IC50 [5]: 20 µM |
| 1000 | Cn1cnc2c(NCc3ccccc3)nc(NCCO)nc21 [OLOMOUCINE] | – |

| Structure (SMILES) | IC50 [1] [µM] | further results |
| --- | --- | --- |
| CC[C@H](CO)Nc1nc(NCc2ccccc2)c2ncn(C(C)C)c2n1 [SELICICLIB] | 0.45 | – |
